Microsomal CLint and IC50 data for 26 compounds are collected here from patent US9938269B2, “Inhibitor compounds of phosphodiesterase type 10A” (ABBVIE INC., priority 2011, dated 2018).

Broadly, the microsomal CLint is a measure of how fast metabolising enzymes remove a compound, apart from limits set by blood flow. For orientation: IC50 means the point on the concentration scale where inhibition reaches its midpoint.

The structures appear in SMILES notation. Structures can show the parent of a compound that is named as a salt.

A short description of data set [1]: Determination of the microsomal half-life, rat liver microsomes. As to conditions: rat, liver microsomes, pH 7.4. For orientation: Liver microsomes are a subcellular fraction often used to study metabolism.
Data set [2] is described as follows: Determination of the microsomal half-life, human liver microsomes. The conditions noted are these: human, liver microsomes, pH 7.4.
Procedure: The test substances were incubated in a concentration of 0.5 μM as follows:
0.5 μM test substance are preincubated together with liver microsomes from different species (from rat, human or other species) (0.25 mg of microsomal protein/10 in 0.05 M potassium phosphate buffer of pH 7.4 in microtiter plates at 37° C. for 5 min. The reaction is started by adding NADPH (1 mg/mL). After 0, 5, 10, 15, 20 and 30 min., 50 μl aliquots are removed, and the reaction is immediately stopped and cooled with the same volume of acetonitrile. The samples are frozen until analyzed. The remaining concentration of undegraded test substance is determined by MSMS. The half-life (T½) is determined from the gradient of the signal of test substance/unit time plot, it being possible to calculate the half-life of the test substance, assuming first order kinetics, from the decrease in the concentration of the compound with time. The microsomal clearance (mCl) is calculated from mCl=ln 2/T½/(content of microsomal protein in mg/ml)×1000 [ml/min/mg]
In another data set the target is T1, PDE10A (human) (Homo sapiens, UniProt Q9Y233).
T1 construct: purchased BPS Bioscience
As to the kind of experiment: Measurement of PDE activity (HTRF cAMP kit), human PDE10A. It is filed as biochemical. The conditions noted are these: PDE enzymatic reaction, substrate 20 nM for PDE10, 60 minutes at 29 C. Summed up:
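Recombinant human PDE10A (10–250 pM range across PDEs) with 20 nM cAMP substrate in 20 mM Tris-HCl pH 7.5, 10 mM MgCl2, 0.1% BSA, compound pre-mixed with enzyme. Ran 60 min at 29 °C. Remaining cAMP read by HTRF, converted to % of uninhibited activity, and IC50 fitted.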
(In general: Time-resolved FRET reads energy transfer from a long-lived donor to a nearby acceptor.)

T1 sequence (Q9Y233 whole entry): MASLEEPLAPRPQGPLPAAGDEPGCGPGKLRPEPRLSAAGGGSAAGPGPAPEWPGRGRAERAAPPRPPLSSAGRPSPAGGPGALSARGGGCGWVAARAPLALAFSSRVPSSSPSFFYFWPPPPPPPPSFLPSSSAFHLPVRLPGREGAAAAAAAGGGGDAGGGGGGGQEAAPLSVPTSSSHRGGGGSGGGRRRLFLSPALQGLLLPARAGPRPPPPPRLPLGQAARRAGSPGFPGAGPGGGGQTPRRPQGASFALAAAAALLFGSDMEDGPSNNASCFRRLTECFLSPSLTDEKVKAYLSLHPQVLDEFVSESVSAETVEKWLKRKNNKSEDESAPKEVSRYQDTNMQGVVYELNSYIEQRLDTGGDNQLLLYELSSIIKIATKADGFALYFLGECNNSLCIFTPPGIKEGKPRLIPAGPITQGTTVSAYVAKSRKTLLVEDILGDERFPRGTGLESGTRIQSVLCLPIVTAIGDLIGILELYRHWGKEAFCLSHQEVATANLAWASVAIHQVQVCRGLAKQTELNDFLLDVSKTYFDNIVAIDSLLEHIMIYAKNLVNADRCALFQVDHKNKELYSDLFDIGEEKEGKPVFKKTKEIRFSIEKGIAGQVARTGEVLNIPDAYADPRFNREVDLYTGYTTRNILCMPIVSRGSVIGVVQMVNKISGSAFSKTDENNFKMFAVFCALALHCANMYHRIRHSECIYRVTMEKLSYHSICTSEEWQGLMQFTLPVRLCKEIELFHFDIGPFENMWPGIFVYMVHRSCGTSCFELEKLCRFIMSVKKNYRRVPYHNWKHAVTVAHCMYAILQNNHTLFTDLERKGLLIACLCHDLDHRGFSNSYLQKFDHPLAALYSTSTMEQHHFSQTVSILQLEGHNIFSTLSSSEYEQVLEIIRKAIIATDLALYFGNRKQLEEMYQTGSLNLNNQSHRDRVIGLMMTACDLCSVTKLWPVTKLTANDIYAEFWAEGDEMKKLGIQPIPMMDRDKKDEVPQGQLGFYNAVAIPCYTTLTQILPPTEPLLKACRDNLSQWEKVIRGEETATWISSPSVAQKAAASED

Take `Cc1noc(C)c1-c1ccnc2c1C(=O)N(CCc1ccc3ccccc3n1)C2` [Example 335, 4-(3,5-Dimethyl-isoxazol-4-yl)-6-(2-quinolin-2-yl-ethyl)-6,7-dihydro-pyrrolo[3,4-b]pyridin-5-one]: the microsomal CLint at 0.5 μM in data set [1] is over 220 µL/min/mg; in data set [2], 100 to 220 µL/min/mg. The compound also returned an IC50 on PDE10A (human) of 200 to 500 nM.

On to `O=C1c2c(-c3cncnc3)ccc(F)c2CN1CCc1cn2ccccc2n1` [Example 381, 4-Fluoro-2-(2-imidazo[1,2-a]pyridin-2-yl-ethyl)-7-pyrimidin-5-yl-2,3-dihydro-isoindol-1-one], for which the microsomal CLint at 0.5 μM in data set [1] was under 100 µL/min/mg; in data set [2] it was 100 to 220 µL/min/mg. Moreover, at PDE10A (human), the IC50 is under 100 nM.

Consider `O=C1c2nccc(-c3ccncc3)c2CN1CCc1ccc2ccccc2n1` [compound 451, 4-Pyridin-4-yl-6-(2-quinolin-2-yl-ethyl)-5,6-dihydro-pyrrolo[3,4-b]pyridin-7-one], for which the microsomal CLint at 0.5 μM in data set [1] was 100 to 220 µL/min/mg; in data set [2], under 100 µL/min/mg. On PDE10A (human), this compound registered an IC50 of under 100 nM.

As to `O=C1c2c(N3CCS(=O)(=O)CC3)ccnc2CN1CCc1nc2ccccc2s1` [compound 390, 6-[2-(1,3-Benzothiazol-2-yl)ethyl]-4-(1,1-dioxo-1,4-thiazinan-4-yl)-7H-pyrrolo[3,4-b]pyridin-5-one trifluoroacetate], the microsomal CLint at 0.5 μM in data set [1] was 100 to 220 µL/min/mg; in data set [2] it was under 100 µL/min/mg. In addition, the half-inhibitory concentration (IC50) on PDE10A (human) was under 100 nM.

On to `O=C1Cc2ccc(-c3cccc4c3C(=O)N(CCc3cn5ccccc5n3)C4)cc2N1` [Example 241, 6-[2-(2-Imidazo[1,2-a]pyridin-2-yl-ethyl)-3-oxo-2,3-dihydro-1H-isoindol-4-yl]-1,3-dihydro-indol-2-one], for which the intrinsic metabolic clearance (microsomal CLint) at 0.5 μM in data set [1] and in data set [2] was under 100 µL/min/mg throughout. On PDE10A (human), this compound gave an IC50 of under 100 nM.

For the compound `O=C1c2c(cccc2N2CCS(=O)(=O)CC2)CN1CCc1ccc2ccccc2n1` [Example 104, 7-(1,1-Dioxo-1-thiomorpholin-4-yl)-2-(2-quinolin-2-yl-ethyl)-2,3-dihydro-isoindol-1-one], the microsomal CLint at 0.5 μM in data set [1] and in data set [2] was under 100 µL/min/mg throughout. In addition, the IC50 at PDE10A (human) was under 100 nM.

In the case of `O=C1c2c(N3CCC(C(F)F)C3)ccnc2CN1CCc1cn2ccccc2n1` (stereo not drawn) [compound 386, 4-[3-(Difluoromethyl)pyrrolidin-1-yl]-6-(2-imidazo[1,2-a]pyridin-2-ylethyl)-7H-pyrrolo[3,4-b]pyridin-5-one], the microsomal CLint at 0.5 μM is 100 to 220 µL/min/mg in data set [1] and under 100 µL/min/mg in data set [2]. At PDE10A (human), the IC50 was under 100 nM.

In the case of `O=C1c2c(N3CCS(=O)(=O)CC3)ccnc2CN1CCc1ccc2ccccc2n1` [Example 137, 4-(1,1-Dioxo-thiomorpholin-4-yl)-6-(2-quinolin-2-yl-ethyl)-6,7-dihydro-pyrrolo[3,4-b]pyridin-5-one], the microsomal CLint at 0.5 μM in data set [1] and in data set [2] was under 100 µL/min/mg in each case. This compound showed an IC50 on PDE10A (human) of under 100 nM.

As to `O=C1c2c(cccc2N2CCS(=O)(=O)CC2)CN1CCc1cn2ccccc2n1` [Example 234, 7-(1,1-Dioxothiomorpholin-4-yl)-2-(2-imidazo[1,2-a]pyridin-2-yl-ethyl)-2,3-dihydro-isoindol-1-one], the microsomal CLint at 0.5 μM in data set [1] and in data set [2] was under 100 µL/min/mg throughout. On PDE10A (human), this compound came in with an IC50 of under 100 nM.

As to `Cc1ncccc1-c1cccc2c1C(=O)N(CCc1cn3ccccc3n1)C2` [Example 240, 2-(2-Imidazo[1,2-a]pyridin-2-yl-ethyl)-7-(2-methyl-pyridin-3-yl)-2,3-dihydro-isoindol-1-one], the intrinsic metabolic clearance (microsomal CLint) at 0.5 μM in data set [1] is 100 to 220 µL/min/mg; in data set [2], under 100 µL/min/mg. This compound also gave an IC50 on PDE10A (human) of under 100 nM.

On to `Cc1c(-c2ccnc3c2C(=O)N(CCc2ccc4ccccc4n2)C3)cnn1C` [Example 332, 4-(1,5-Dimethyl-1H-pyrazol-4-yl)-6-(2-quinolin-2-yl-ethyl)-6,7-dihydro-pyrrolo[3,4-b]pyridin-5-one], for which the microsomal CLint at 0.5 μM in data set [1] and in data set [2] was under 100 µL/min/mg throughout. For the same compound, on PDE10A (human), the concentration for half-maximal inhibition (IC50) was under 100 nM.

Take `O=C1c2c(N3CCOCC3)ccnc2CN1CCc1cn2cc(F)ccc2n1` [compound 493, 6-[2-(6-Fluoroimidazo[1,2-a]pyridin-2-yl)ethyl]-4-morpholino-7H-pyrrolo[3,4-b]pyridin-5-one trifluoroacetate]: the microsomal CLint at 0.5 μM in data set [1] and in data set [2] was under 100 µL/min/mg throughout. For the same compound, the IC50 against PDE10A (human) is under 100 nM.

For `NCc1ccc(-c2cccc3c2C(=O)N(CCc2ccc4ccccc4n2)C3)cc1` [Example 193, 7-(4-Aminomethyl-phenyl)-2-(2-quinolin-2-yl-ethyl)-2,3-dihydro-isoindol-1-one], the microsomal CLint at 0.5 μM in data set [1] and in data set [2] was under 100 µL/min/mg each time. The IC50 on PDE10A (human) lay in the range of 100 to 200 nM.

For the compound `O=C1c2c(cccc2-c2cccnc2)CN1CCc1cn2ccccc2n1` [Example 235, 2-(2-Imidazo[1,2-a]pyridin-2-yl-ethyl)-7-pyridin-3-yl-2,3-dihydro-isoindol-1-one], the values for the microsomal CLint at 0.5 μM in data set [1] and in data set [2] were under 100 µL/min/mg and 100 to 220 µL/min/mg, respectively. Besides, on PDE10A (human), the IC50 is under 100 nM.

`O=C1c2c(cccc2-c2ccc(C(F)(F)F)nc2)CN1CCc1ccc2ccccc2n1` [Example 98, 2-(2-Quinolin-2-yl-ethyl)-7-(6-trifluoromethyl-pyridin-3-yl)-2,3-dihydro-isoindol-1-one]: the results for the microsomal CLint at 0.5 μM in data set [1] and in data set [2] were under 100 µL/min/mg and 100 to 220 µL/min/mg, respectively. The same compound registered an IC50 at PDE10A (human) of 200 to 500 nM.

With `COc1cccc(CCN2Cc3nccc(-c4ccncc4)c3C2=O)n1` [compound 553, 6-[2-(6-Methoxy-2-pyridyl)ethyl]-4-(4-pyridyl)-7H-pyrrolo[3,4-b]pyridin-5-one], the microsomal CLint at 0.5 μM in data set [1] and in data set [2] was 100 to 220 µL/min/mg in each case. At PDE10A (human), this compound displayed an IC50 of under 100 nM.

Take `O=C1c2c(-c3cn[nH]c3)ccnc2CN1CCc1nc2ccccc2s1` [compound 538, 6-[2-(1,3-Benzothiazol-2-yl)ethyl]-4-(1H-pyrazol-4-yl)-7H-pyrrolo[3,4-b]pyridin-5-one trifluoroacetate]: the values for the microsomal CLint at 0.5 μM in data set [1] and in data set [2] were 100 to 220 µL/min/mg and under 100 µL/min/mg, respectively. For the same compound, the IC50 against PDE10A (human) is under 100 nM.

Regarding `O=C1c2c(-c3ccoc3)ccnc2CN1CCc1cn2cc(F)ccc2n1` [compound 526, 6-[2-(6-Fluoroimidazo[1,2-a]pyridin-2-yl)ethyl]-4-(3-furyl)-7H-pyrrolo[3,4-b]pyridin-5-one], the microsomal CLint at 0.5 μM is 100 to 220 µL/min/mg in data set [1] and under 100 µL/min/mg in data set [2]. For the same compound, the IC50 at PDE10A (human) was under 100 nM.

For the compound `O=C1c2c(N3CCC(O)CC3)ccnc2CN1CCc1ccc2ccccc2n1` [compound 530, 4-(4-Hydroxy-piperidin-1-yl)-6-(2-quinolin-2-yl-ethyl)-6,7-dihydro-pyrrolo[3,4-b]pyridin-5-one trifluoroacetate], the microsomal CLint at 0.5 μM in data set [1] is 100 to 220 µL/min/mg; in data set [2], under 100 µL/min/mg. The compound further gave an IC50 against PDE10A (human) of under 100 nM.

`Cc1ccc2c(c1)nc(CCN1Cc3nccc(N4CCOCC4)c3C1=O)n2C` [compound 415, 6-[2-(1,5-Dimethyl-1H-benzoimidazol-2-yl)-ethyl]-4-morpholin-4-yl-6,7-dihydro-pyrrolo[3,4-b]pyridin-5-one]: the microsomal CLint at 0.5 μM in data set [1] and in data set [2] was under 100 µL/min/mg throughout. Also, the IC50 against PDE10A (human) was under 100 nM.

In the case of `Cc1ccc2c(c1)nc(CCN1Cc3nccc(-c4ccncc4)c3C1=O)n2C` [compound 536, 6-[2-(1,5-Dimethyl-1H-benzoimidazol-2-yl)-ethyl]-4-pyridin-4-yl-6,7-dihydro-pyrrolo[3,4-b]pyridin-5-one], the microsomal CLint at 0.5 μM was under 100 µL/min/mg in data set [1] and 100 to 220 µL/min/mg in data set [2]. For the same compound, the IC50 on PDE10A (human) is under 100 nM.

For `Cc1occc1-c1ccnc2c1C(=O)N(CCc1cn3ccccc3n1)C2` [compound 524, 6-(2-Imidazo[1,2-a]pyridin-2-ylethyl)-4-(2-methyl-3-furyl)-7H-pyrrolo[3,4-b]pyridin-5-one], the microsomal CLint at 0.5 μM is over 220 µL/min/mg in data set [1] and 100 to 220 µL/min/mg in data set [2]. At PDE10A (human), this compound yielded an IC50 of 100 to 200 nM.

On to `O=C1c2c(cccc2N2C[C@@H]3C[C@H]2CN3)CN1CCc1ccc2ccccc2n1` [Example 101, 7-(1S,4S)-2,5-Diaza-bicyclo[2.2.1]hept-2-yl-2-(2-quinolin-2-yl-ethyl)-2,3-dihydro-isoindol-1-one], for which the microsomal CLint at 0.5 μM in data set [1] is over 220 µL/min/mg; in data set [2], under 100 µL/min/mg. Besides, the IC50 at PDE10A (human) was 200 to 500 nM.

Consider `COc1ccc(-c2ccnc3c2C(=O)N(CCc2ccc4ccccc4n2)C3)cc1` [Example 161, 4-(4-Methoxy-phenyl)-6-(2-quinolin-2-yl-ethyl)-6,7-dihydro-pyrrolo[3,4-b]pyridin-5-one], for which the results for the microsomal CLint at 0.5 μM in data set [1] and in data set [2] were over 220 µL/min/mg and 100 to 220 µL/min/mg, respectively. This compound also gave an IC50 against PDE10A (human) of under 100 nM.

With `O=C1c2c(N3CCOCC3)ccc(F)c2CN1CCc1cn2ccccc2n1` [Example 295, 4-Fluoro-2-(2-imidazo[1,2-a]pyridin-2-yl-ethyl)-7-morpholin-4-yl-2,3-dihydro-isoindol-1-one], the microsomal CLint at 0.5 μM in data set [1] and in data set [2] was under 100 µL/min/mg throughout. Also, the IC50 at PDE10A (human) is under 100 nM.

For `Cc1cnc(CCN2Cc3nccc(N4CCOCC4)c3C2=O)cc1C` [compound 520, 6-[2-(4,5-Dimethyl-2-pyridyl)ethyl]-4-morpholino-7H-pyrrolo[3,4-b]pyridin-5-one], the results for the microsomal CLint at 0.5 μM in data set [1] and in data set [2] were 100 to 220 µL/min/mg and under 100 µL/min/mg, respectively. The IC50 against PDE10A (human) fell in the range of 100 to 200 nM.
